Data as given in paper PMC4714855, “Prediction of T Cell Epitopes from Leishmania major Potentially Excreted/Secreted Proteins Inducing Granzyme B Production” (PLoS ONE, 2016).

Tests used:
[1] = target: T1, HLA-A*0201 molecules on T2 cells (Homo sapiens, UniProt P04439, D140Y/D185E/D98H/E176V/E277Q/G131W/G231S/I119V/I121R/I166T/I218V/L300P/L318F/N151K/N90K/P208A/P217A/Q86G/Q94H/R138H/R169H/T345S); assay: class I HLA stabilization assay on T2 cells (flow cytometry, anti-HLA-A2 antibody); type: cell-based; conditions: for relative fluorescence intensity (RFI), percentage increase of mean fluorescence above negative controls: T2 cells, β2-microglobulin 10μg/mL, peptide 10μg/mL (Fig 1 legend: 100μg/mL), 16h 37°C, then Brefeldin A 2h; for affinity for HLA-A2 molecule (stabilization on T2 cells), class in words: T2 cell stabilization assay
T1 construct: endogenous in cells; host or cells: T2 cells
Procedure: The affinity of peptides for HLA-A*0201 molecules was evaluated by using the stabilization assay as previously described. Briefly, T2 cells were incubated with human β2-microglobulin at a final concentration of 10μg/mL in the presence or not of peptides at 10μg/mL for 16h at 37°C in 5% CO2. Cells were then incubated with 5μg/mL Brefeldin A (Sigma-Aldrich, St. Louis, MO) for 2h at 37°C. Expression of HLA-A*0201 on T2 cells was then determined by staining with fluorescein isothiocyanate-labelled anti-HLA-A2 antibody (BD Biosciences, San Jose, CA) and analyzed by flow cytometry using FACScan (BD Biosciences, San Jose, CA). Results were expressed in relative fluorescence intensity (RFI) calculated as the percentage increase of the mean fluorescence above that of the negative controls.
The sequence of 33 different clones of potentially ES proteins has been used. Based on computer software predictions, putative class I HLA-restricted T cell epitopes were identified. Twenty proteins were able to generate a total of 78 nonameric peptides that could be loaded by HLA-A*0201 molecule (Table 2). Subsequently, we have evaluated the binding affinity of these peptides to HLA-A*0201 molecules by class I HLA stabilization assay. This assay measures the increase of HLA-A*0201 molecules induced on T2 cells following exposure to exogenous HLA-A*0201 binding peptides, with high affinity peptides inducing HLA-A*0201 up-regulation more strongly than low-affinity peptides. Individual results are shown on Fig 1A. The 78 tested peptides were classified into 3 groups regarding the percentage of RFI.
Fig 1 Binding affinity of LmES peptides to HLA-A*0201 molecules. The affinities of selected peptides were determined by class I HLA stabilization assay. (A) Results for individual peptides. T2 cells were initially incubated with 100μg (final concentration) of each of the peptides/mL for 16h at 37°C, followed by incubation at 37°C for 2h in presence of Brefeldine A. HLA-A2 expression on these cells was analyzed by flow cytometry using the BB7.2 antibody. MHC stabilization efficiency for each peptide was calculated as the percentage increase of the mean fluorescence above that of the negative controls. Results were expressed as relative fluorescence intensity (RFI). (B) Box plot results. ++: RFI ranges from 200 to 300%, +: RFI ranges from 100 to 200%, and -: RFI ranges from 0 to 100%.

PBMCs = assay: Granzyme B production by stimulated PBMCs (ELISA of culture supernatants); type: cell-based, human; conditions: PBMCs of 3 HLA-A*0201+ and 3 HLA-A*0201- immune (healed ZCL) donors, peptide 20μg/mL, 5 days; 24 peptides tested
Procedure: To assess whether the selected peptides could stimulate or not CD8^+ T cells, we have analysed the induction of GrB and IFN-γ by stimulated PBMCs from healed ZCL individuals. PBMCs separated from heparinized blood samples using Ficoll-Hypaque (Sigma-Aldrich, St. Louis, MO) density gradient centrifugation were resuspended in RPMI 1640 medium (Sigma-Aldrich, St. Louis, MO) supplemented with 2mM L-Glutamine (Sigma-Aldrich, St. Louis, MO), 1mM sodium pyruvate (Gibco, Invitrogen, Grand Island, NY), 100U/mL Penicillin (Sigma-Aldrich, St. Louis, MO), 100μg/mL Streptomycin (Sigma-Aldrich, St. Louis, MO), 10mM HEPES (Gibco, Invitrogen, Grand Island, NY), 20μg/mL Gentamicin (Gibco, Invitrogen, Grand Island, NY), 1X non-essential amino acids (Gibco, Invitrogen, Grand Island, NY), 2-mercaptoethanol (Gibco, Invitrogen, Grand Island, NY), and 10% (v/v) heat-inactivated human AB serum (Sigma-Aldrich, St. Louis, MO), [complete medium] at a concentration of 1.0x10^6 cells/mL. Peptide pools were prepared instantly by dilution with phosphate buffered saline and then added to the cell culture at a final concentration of 1μg/mL. In some experiments, peptides were added separately to the culture at a concentration of 20μg/mL. As positive control, PBMCs were stimulated with 10ng/mL of phorbol 12-myristate 13-acetate (PMA) (Sigma-Aldrich, St. Louis, MO) and 50ng/mL Ionomycin (Sigma-Aldrich, St. Louis, MO). All cultures were incubated at 37°C in 5% CO2 for 5 days. Culture supernatants were then harvested and frozen at -80°C until use.
Granzyme B (GrB), IFN-γ, and IL-10 levels in culture supernatants were quantified with an enzyme-linked immunosorbent (ELISA) assay (MABTECH AB, Nacka Strand, Sweden) for the first one and OptEIA set ELISA assay kit (BD Biosciences, San Jose, CA) for the others. The results were expressed as pg/mL based on the standards provided by the kits. Quantification thresholds were fixed to 100pg/mL for GrB, 45pg/mL for IFN-γ, and 20pg/mL for IL-10.
Fig 2 Peptides grouped in pools induced GrB production. (A) PBMCs from 5 HLA-A*0201^+-donors with a history of ZCL in response to stimulation with peptide pools at a final concentration of 1μg/mL per peptide or (B) SLA (10μg/mL) and PMA/Ionomycin (10ng/mL and 50ng/mL, respectively) as positive controls. GrB production was assessed in culture supernatants using ELISA. (C) Rank of the peptide pools. +: mean pool rank, -: median.
Fig 3 GrB induction by the selected peptides. (A) PBMCs from HLA-A*0201^+ (black mark) and HLA-A*0201^- (white mark) -healed ZCL individuals were stimulated with selected peptides separately. The supernatant was collected after 5 days of incubation and assayed for GrB production.

Sequence: ELLGNLEEV [D6, nonamer … from L. major ES protein Pr 31]
- relative fluorescence intensity (RFI), percentage increase of mean fluorescence above negative controls [1]: > 200%

Sequence: TLGVKQMVV [F6, nonamer … from L. major ES protein Pr 74 (elongation factor 1-alpha)]
- affinity for HLA-A2 molecule (stabilization on T2 cells), class in words [1]: high
- relative fluorescence intensity (RFI), percentage increase of mean fluorescence above negative controls [1]: > 200%
- GrB induction by individual peptides (PBMCs): highest levels of GrB

Sequence: SLQFSAFLL [G1, nonamer … from L. major ES protein Pr 78]
- relative fluorescence intensity (RFI), percentage increase of mean fluorescence above negative controls [1]: > 200%

Sequence: VVSVLTHSV [G4, nonamer … from L. major ES protein Pr 78]
- affinity for HLA-A2 molecule (stabilization on T2 cells), class in words [1]: intermediate
- GrB induction by individual peptides (PBMCs): highest levels of GrB

Sequence: PLSPATRRL [E6, nonamer … from L. major ES protein Pr 38]
- GrB induction by individual peptides (PBMCs): highest levels of GrB

Sequence: MLLWTAVAV [E1, nonamer … from L. major ES protein Pr 37]
- relative fluorescence intensity (RFI), percentage increase of mean fluorescence above negative controls [1]: > 200%

Sequence: FMEVFGMLV [G2, nonamer … from L. major ES protein Pr 78]
- affinity for HLA-A2 molecule (stabilization on T2 cells), class in words [1]: high
- relative fluorescence intensity (RFI), percentage increase of mean fluorescence above negative controls [1]: > 200%
- GrB induction by individual peptides (PBMCs): highest levels of GrB

Sequence: YLRTFPAAL [E2, nonamer … from L. major ES protein Pr 37]
- affinity for HLA-A2 molecule (stabilization on T2 cells), class in words [1]: intermediate
- GrB induction by individual peptides (PBMCs): highest levels of GrB

Sequence: MLVQSCTSI [G3, nonamer … from L. major ES protein Pr 78]
- affinity for HLA-A2 molecule (stabilization on T2 cells), class in words [1]: high
- relative fluorescence intensity (RFI), percentage increase of mean fluorescence above negative controls [1]: > 200%
- GrB induction by individual peptides (PBMCs): highest levels of GrB
